Test results published in PMC9871744 (Cellular and Molecular Gastroenterology and Hepatology, 2022).
“And” between values parts separate entries of the source, which are not always exact repeats. Equal values may be shown once.

How the values were obtained:
[1] = Pharmacokinetics and detection in blood by LC-MS; assay type: in vivo, mice; details: mouse, plasma, iv, 10 mg/kg, mice
HepG2 cells = test: Cytotoxicity evaluation
Cytotoxicity evaluation = details: human, Cytotoxicity (%); for cytotoxicity at 0.05 mmol/L: 0.050 mmol/L; for cytotoxicity at 0.1 mmol/L: 0.100 mmol/L
[2] = extended treatment in the absence of S9 mix, 0.0065 mmol/L
[3] = extended treatment in the absence of S9 mix, 0.010 mmol/L
[4] = extended treatment in the absence of S9 mix, 0.020 mmol/L
[5] = extended treatment in the absence of S9 mix, 0.030 mmol/L
[6] = extended treatment in the absence of S9 mix, 0.040 mmol/L
[7] = short treatment in absence of S9 mix, 0.025 mmol/L
[8] = short treatment in absence of S9 mix, 0.050 mmol/L
[9] = short treatment in absence of S9 mix, 0.100 mmol/L
[10] = short treatment in absence of S9 mix, 0.25 mmol/L
[11] = short treatment in the presence of S9 mix
[12] = short treatment in the presence of S9 mix, 0.025 mmol/L
[13] = short treatment in the presence of S9 mix, 0.050 mmol/L
[14] = short treatment in the presence of S9 mix, 0.100 mmol/L
[15] = short treatment in the presence of S9 mix, 0.25 mmol/L
[16] = short treatment in absence of S9 mix

Work on `CCCCC/C=C\C/C=C\CCCCCCCCP(=O)(OCC)OCC` [NKS-3, diethyl (9Z,12Z)-octadeca-9,12-dien-1-ylphosphonate] yielded an AUC(0-t) ([1]; AUClast, intravenous 10 mg/kg body weight, NCA (AUC0–6 h)) of ~60000 ng·h/mL, a Cmax ([1]; dose of 10 mg/kg body weight) of ~48000 ng/mL and a Cmax ([1]; intravenous 10 mg/kg body weight, NCA, means ± SEM, five mice) of 46700 ± 15300 ng/mL. The “concentrations with evidence of toxicity” value (HepG2 cells; extended treatment in the absence of S9 mix) was ≥ 30 µM, the CBPI (HepG2 cells; [2]) was 1.64 and 1.74 and the “Mean CBPI” value (HepG2 cells; [2]) was 1.69. The CBPI (HepG2 cells; [3]) was 1.57 and 1.62, the “Mean CBPI” value (HepG2 cells; [3]) was 1.59 and the CBPI (HepG2 cells; [4]) was 1.47 and 1.46. The “Mean CBPI” value (HepG2 cells; [4]) was 1.46, the CBPI (HepG2 cells; [5]) was 1.25 and the “Mean CBPI” value (HepG2 cells; [5]) was 1.25. For the same compound, the CBPI (HepG2 cells; [6]) was 1.24, the “Mean CBPI” value (HepG2 cells; [6]) was 1.24 and the “Cytotoxicity (%)” value (HepG2 cells; extended treatment in the absence of S9 mix, 0.062 mmol/L) was “Cell death”. The “Cytotoxicity (%)” value (HepG2 cells; extended treatment in the absence of S9 mix, 0.125 mmol/L) was “Cell death”, the CBPI (HepG2 cells; [7]) was 1.83 and 1.84 and the “Mean CBPI” value (HepG2 cells; [7]) was 1.84. For the same compound, the CBPI (HepG2 cells; [8]) was 1.64 and 1.66, the “Mean CBPI” value (HepG2 cells; [8]) was 1.65 and the CBPI (HepG2 cells; [9]) was 1.28 and 1.38. The “Mean CBPI” value (HepG2 cells; [9]) was 1.33, the CBPI (HepG2 cells; [10]) was 1.28 and the “Mean CBPI” value (HepG2 cells; [10]) was 1.26. For the same compound, the “Cytotoxicity (%)” value (HepG2 cells; short treatment in absence of S9 mix, 0.40 mmol/L) was “Cell death”, the “Cytotoxicity (%)” value (HepG2 cells; short treatment in absence of S9 mix, 0.50 mmol/L) was “Cell death” and the “Cytotoxicity (%)” value (HepG2 cells; short treatment in absence of S9 mix, 1.00 mmol/L) was “Cell death”. For the same compound, the “Cytotoxicity (%)” value (HepG2 cells; short treatment in absence of S9 mix, 5.00 mmol/L) was “Cell death”, the “Cytotoxicity (%)” value (HepG2 cells; short treatment in absence of S9 mix, 10.00 mmol/L) was “Cell death” and the “concentrations with evidence of toxicity” value (HepG2 cells; short treatment in the absence of S9 mix) was ≥ 250 µM. The “concentrations with evidence of toxicity” value (HepG2 cells; [11]) was ≥ 250 µM, the CBPI (HepG2 cells; [12]) was 1.83 and 1.84 and the “Mean CBPI” value (HepG2 cells; [12]) was 1.83. The CBPI (HepG2 cells; [13]) was 1.86 and 1.82, the “Mean CBPI” value (HepG2 cells; [13]) was 1.84 and the CBPI (HepG2 cells; [14]) was 1.63 and 1.66. For the same compound, the “Mean CBPI” value (HepG2 cells; [14]) was 1.65, the CBPI (HepG2 cells; [15]) was 1.20 and 1.23 and the “Mean CBPI” value (HepG2 cells; [15]) was 1.22. The “Cytotoxicity (%)” value (HepG2 cells; short treatment in the presence of S9 mix, 0.40 mmol/L) was “Cell death”, the “Cytotoxicity (%)” value (HepG2 cells; short treatment in the presence of S9 mix, 0.50 mmol/L) was “Cell death” and the “Cytotoxicity (%)” value (HepG2 cells; short treatment in the presence of S9 mix, 1.00 mmol/L) was “Cell death”. For the same compound, the “Cytotoxicity (%)” value (HepG2 cells; short treatment in the presence of S9 mix, 5.00 mmol/L) was “Cell death”, the “Cytotoxicity (%)” value (HepG2 cells; short treatment in the presence of S9 mix, 10.00 mmol/L) was “Cell death” and the cytotoxicity at 0.0065 mmol/L (Cytotoxicity evaluation; [2]) was 24.9%. For the same compound, the cytotoxicity at 0.01 mmol/L (Cytotoxicity evaluation; [3]) was 35.3%, the cytotoxicity at 0.02 mmol/L (Cytotoxicity evaluation; [4]) was 49.5% and the cytotoxicity at 0.03 mmol/L (Cytotoxicity evaluation; [5]) was 72.8%. The cytotoxicity at 0.04 mmol/L (Cytotoxicity evaluation; [6]) was 73.7%, the cytotoxicity at 0.025 mmol/L (Cytotoxicity evaluation; [16]) was -9.99% and the cytotoxicity at 0.05 mmol/L (Cytotoxicity evaluation; [16]) was 14.7%. It also gave a cytotoxicity at 0.1 mmol/L (Cytotoxicity evaluation; [16]) of 56.2%, a cytotoxicity at 0.25 mmol/L (Cytotoxicity evaluation; [16]) of 65.5% and a cytotoxicity at 0.025 mmol/L (Cytotoxicity evaluation; [11]) of -3.6%. It also gave a cytotoxicity at 0.05 mmol/L (Cytotoxicity evaluation; [11]) of -5.03%, a cytotoxicity at 0.1 mmol/L (Cytotoxicity evaluation; [11]) of 19.4% and a cytotoxicity at 0.25 mmol/L (Cytotoxicity evaluation; [11]) of 73%.
